# Laboratory results as given in article PMC12481569, “Novltex: A New Class of Antibiotics with Potent Activity against Multidrug-Resistant Bacterial Pathogens–Design, Synthesis, and Biological Evaluation” (Journal of Medicinal Chemistry, 2025).
# Positions of bridges follow the written chain, without caps; N, C: chain ends. Non-standard residues stand in square brackets, D forms with d. Residues, ends and D or L forms follow the SMILES beside them. dCha = N[C@H](CC1CCCCC1)C(=O)O
# Test system: human red blood cells (RBCs)
# Experiment: Hemolysis assay
# Assay type: cell-based
# Details: 1 h, 37 °C, PBS pH 7.0, absorbance 576 nm, 4 donors in duplicate
# Experimental: 4 Cytotoxicity evaluation of analogue 12. Human primary dermal fibroblasts (A), liver cell line HepG2 (B), and kidney cell line HEK293T (C) cells (5 × 10^3 cells/well in 96-well plates) were treated with increasing concentrations of analogue 12 or 1 μM staurosporine (STS, used as a positive toxicity control) for 24 or 48 h, as indicated. Viability of cells was determined using an MTS-based assay. Results (% cell viability) are the mean ± SD of three independent experiments performed in triplicate. (D) Freshly collected human red blood cells (RBCs) were exposed to increasing concentrations of 12 or Triton X-100 (TX), as indicated, for 1 h. Hemolytic activity (% hemolysis) was determined by spectrophotometrically measuring the release of hemoglobin compared to that with TX (used as a positive control). […]
# day, cells were treated in triplicates with increasing concentrations of Novltex analogue 12, as indicated in the corresponding figure and the figure legend (Figure 4A-C). […] Cell viability assessed after 24 h or 48 h incubation using an MTS-based CellTiter 96® AQueous One Solution Cell Proliferation Assay (Promega #G3582, Southampton UK) as per manufacturer’s instructions. Absorbance was recorded at 490 nm. Relative cell viability was determined by subtracting the blank (cell culture medium and MTS only) from individual values before normalizing against the untreated control. […]
structure (smiles),measurement,setting,value
"CC(C)C[C@@H]1NC(=O)[C@H](C)NC(=O)[C@H](NC(=O)[C@H](CO)NC(=O)[C@@H](CCCCN)NC(=O)[C@@H](CC2CCCCC2)NC(=O)[C@@H](N)Cc2ccccc2)[C@H](C)OC(=O)[C@H](CC(C)C)NC1=O [analogue 12, Leu2Cha–Novltex] (H-F[dCha][dK]S[dT]ALL; ester 5-C)",hemolysis of human erythrocytes,62.5 μg/mL (125× MIC),low hemolysis
same,hemolysis of human erythrocytes,concentrations up to 31.2 μg/mL,no detectable hemolysis
